# Source: patent publication US6387848B1, “Non-aqueous concentrated spreading oil composition” (priority 2000, dated 2002)
# Like-named read-outs stand apart in the source and are kept apart here.
# Columns and labels:
# Pyricularia oryzae [1] = assay type: in vivo; details: added to the water, 126 day after treatment
# Pyricularia oryzae [2] = assay type: in vivo; details: added to the water, 52 days after treatment
# [3] = Granules 50 g/kg, dose 100 g/ha
# [4] = Granules 50 g/kg, dose 250 g/ha
# [5] = Granules 50 g/kg, dose 500 g/ha
# [6] = Granules 50 g/kg, dose 1000 g/ha
# [7] = SO 30 g/L (Example 1), dose 50 g/ha
# [8] = SO 30 g/L (Example 1), dose 100 g/ha
# [9] = SO 30 g/L (Example 1), dose 250 g/ha
# [10] = SO 30 g/L (Example 1), dose 500 g/ha
# [11] = SO 30 g/L (Example 1), dose 1000 g/ha
structure (smiles),measurement,setting,value
"C[C@H](Nc1c(-c2c(F)cc(F)cc2F)c(Cl)nc2ncnn12)C(F)(F)F [(S)-Azolopyrimidine C, 5-chloro-6-(2,4,6-trifluorophenyl)-7-(1,1,1-trifluoroprop-2-ylamino)-[1,2,4]triazolo[1,5-a]pyrimidine]","Percent rice danicle blast control, control (%)",Pyricularia oryzae [1]; [3],39%
same,"Percent rice danicle blast control, control (%)",Pyricularia oryzae [1]; [4],44%
same,"Percent rice danicle blast control, control (%)",Pyricularia oryzae [1]; [5],67%
same,"Percent rice danicle blast control, control (%)",Pyricularia oryzae [1]; [6],82%
same,"Percent rice danicle blast control, control (%)",Pyricularia oryzae [1]; [7],22%
same,"Percent rice danicle blast control, control (%)",Pyricularia oryzae [1]; [8],44%
same,"Percent rice danicle blast control, control (%)",Pyricularia oryzae [1]; [9],67%
same,"Percent rice danicle blast control, control (%)",Pyricularia oryzae [1]; [10],78%
same,"Percent rice danicle blast control, control (%)",Pyricularia oryzae [1]; [11],84%
same,"Percent rice leaf blast control, control (%)",Pyricularia oryzae [2]; [3],78%
same,"Percent rice leaf blast control, control (%)",Pyricularia oryzae [2]; [4],86%
same,"Percent rice leaf blast control, control (%)",Pyricularia oryzae [2]; [5],90%
same,"Percent rice leaf blast control, control (%)",Pyricularia oryzae [2]; [6],95%
same,"Percent rice leaf blast control, control (%)","Pyricularia oryzae [2]; Granules 50 g/kg, dose 1500 g/ha",97%
same,"Percent rice leaf blast control, control (%)",Pyricularia oryzae [2]; [7],84%
same,"Percent rice leaf blast control, control (%)",Pyricularia oryzae [2]; [8],89%
same,"Percent rice leaf blast control, control (%)",Pyricularia oryzae [2]; [9],95%
same,"Percent rice leaf blast control, control (%)",Pyricularia oryzae [2]; [10],97%
same,"Percent rice leaf blast control, control (%)",Pyricularia oryzae [2]; [11],98%
